Read-outs that look alike come from different tables or passages of the source. Marks after values point to notes of the source that are not given here.
Experiments:
BMK-16myc cells = test system: BMK-16myc cells
From the text: We used BMK-16myc cells which are baby mouse kidney cells immortalized with genes of 16 protein of the human papilloma virus (HPV) and the myc gene, which grow in mouse, are highly invasive and produce metastases rapidly. One million cells were implanted subcutaneously in the back of each mouse. […] Subsequently, the animals were sacrificed and the tumors under the back skin as well as thymus, spleen, liver and kidney were collected for histopathological examination.
(§1) The cellular viability that was quantified by the MTT method, indicates the mitochondrial activity.

LR.4 cells = test system: LR.4 cells
From the text: as §1

## Peptide LEDGPKFL + Zinc [IMMP]
platelets; normal animals
  Increase in blood platelets: ~100%
platelets; normal rats
  Platelets: 1560 ± 248* 10^3/μL
BMK-16myc cells
  Difference with respect to control: not observed any difference with respect to control
BMK-16myc cells; IMMP (M) −8
  Cells proliferation (control percent, MTT): 102 ± 2.9%
BMK-16myc cells; IMMP (M) −9
  Cells proliferation (control percent, MTT): 104 ± 3.1%
BMK-16myc cells; IMMP (M) −10
  Cells proliferation (control percent, MTT): 102 ± 3.5%
BMK-16myc cells; IMMP (M) −11
  Cells proliferation (control percent, MTT): 103 ± 2.7%
BMK-16myc cells; IMMP (M) −12
  Cells proliferation (control percent, MTT): 102 ± 3.1%
LR.4 cells
  Increase of LR.4 cells: 20%
LR.4 cells; IMMP (M) −8
  Cells proliferation (control percent, MTT): 115 ± 5.4 %
LR.4 cells; IMMP (M) −9
  Cells proliferation (control percent, MTT): 118 ± 6.7 %
LR.4 cells; IMMP (M) −10
  Cells proliferation (control percent, MTT): 120 ± 8.5 %
LR.4 cells; IMMP (M) −11
  Cells proliferation (control percent, MTT): 110 ± 10.9 %
LR.4 cells; IMMP (M) −12
  Cells proliferation (control percent, MTT): 104 ± 4.3%

From patent US20150132328A1 (priority 2011, published 2015)
